Test results from patent US8008296B2, “Histamine H3 receptor agents, preparation and therapeutic uses” (Eli Lilly and Company, priority 2005, dated 2011).

Biological target: T1, human histamine 3 receptor (H3R) (Homo sapiens, UniProt Q9Y5N1)
T1 construct: expressed in transfected cells; membranes
Test: Histamine H3 Receptor Binding Assay (competitive inhibition SPA, [3H] α-methylhistamine, HEK293 H3R8 membranes)
Excerpt: The compounds of the present invention can readily be evaluated by using a competitive inhibition Scintillation Proximity Assay (SPA) based on a H3R binding assay using [3H] a methylhistamine as ligand. Stable cell lines, including but not limited to HEK can be transfected with cDNA coding for H3R to prepare membranes used for the binding assay. The technique is illustrated below (Preparation of Histamine Receptor Subtype Membranes) for the histamine receptor subtypes.
cDNA for the human histamine 3 receptor is cloned and expressed as described in (A. Preparation H1R membranes), above. Transfected cells are selected using G418 ([…]), grown, and tested for histamine binding by the SPA described above. For total binding, cells are assayed in a SPA reaction described above containing 50 mM Tris-HCL (assay buffer), pH 7.6, 1 mg wheat germ agglutinin SPA beads (Amersham Pharmacia Biotech, #RPNQ0001), and 1 nM (3H)-n-alpha-methylhistamine (NEN, NET1027) (total volume per well=200 μl). Thioperimide is added to determine non-specific binding. Several clones are selected as positive for binding, and a single clone (H3R8) is used to prepare membranes for binding studies described above. Five micrograms of protein is used per well in the SPA receptor-binding assay. […]

T1 sequence (Q9Y5N1 whole entry): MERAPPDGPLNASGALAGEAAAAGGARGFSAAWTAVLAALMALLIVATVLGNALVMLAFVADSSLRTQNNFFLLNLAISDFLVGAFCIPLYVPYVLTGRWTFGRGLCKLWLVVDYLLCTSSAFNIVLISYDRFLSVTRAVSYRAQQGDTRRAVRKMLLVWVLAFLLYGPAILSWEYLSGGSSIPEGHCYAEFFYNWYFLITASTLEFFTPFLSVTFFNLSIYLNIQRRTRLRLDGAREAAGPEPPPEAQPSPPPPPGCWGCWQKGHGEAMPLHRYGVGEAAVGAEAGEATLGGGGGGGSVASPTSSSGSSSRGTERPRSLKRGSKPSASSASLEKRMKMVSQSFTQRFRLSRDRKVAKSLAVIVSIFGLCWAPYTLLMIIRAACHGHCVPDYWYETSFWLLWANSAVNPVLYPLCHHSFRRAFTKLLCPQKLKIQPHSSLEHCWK

Ki [nM] | Compound
21.6 | CCCCNc1ccc(C(=O)N2CCCC2CN2CCCC2)cc1 (centres unmarked)
11.7 | O=C(c1ccc(Sc2ccncn2)cc1)N1CCCC1CN1CCCC1 (centres unmarked)
